Test results as given in US20050171185A1, “Indole derivatives” (Fujisawa Pharmaceutical Co., Ltd., a Japanese corporation, priority 1998, published 2005).

Test system: db/db mice
Test: Test for activity of decreasing plasma glucose using db/db mice
Assay type: in vivo
Settings: female db/db mice, test compound mixed in powdered chow (0.01%) for 14 days, dose 3.2 mg/kg; difference between db/db and +/+ mouse groups defined as 100%
Excerpt: Test Example: Test for Activity of Decreasing Plasma Glucose Using db/db Mice
3-(1-bromonaphthalen-2-ylmethyl)-5-((5-chloro-2-thiophenylsulfonyl)carbamoyl)-2-methylindole (Compound (23))
Five-week-old female mice [C57BL/KsJ-dbm db+/db+, C57BL/KsJ-dbm +m/+m (Jackson Laboratory)] were purchased, and were kept for 2 to 3 weeks. Then, these mice were used in the test.
A test compound was mixed with a powdered chow (CE-2, made by Nippon Clea) using a mortar. The mixing ratio was 0.01%. The mixed chow was changed twice a week for each group. The feed amount and the remaining amount were recorded, and the intake was calculated from the difference therebetween.
The female db/db mice were grouped according to the body weight, the plasma glucose, and the plasma triglyceride concentrations. […] Plasma glucose, triglyceride, and insulin concentrations were measured on day 0 and day 14 as well as plasma glucose and triglyceride concentrations on day 7. The body weight was measured on day 0, day 7, and day 14. […]
The plasma glucose was measured by a glucose oxidase method (Glucose CII-Test Wako made by Wako Pure Chemical Industries, Ltd.) using from 10 to 15 μl of plasma. The plasma triglyceride concentration was measured by a GPO-p-chlorophenol method (Triglyceride G-Test Wako made by Wako Pure Chemical Industries, Ltd.) or a GPO-DAOS method (Triglyceride E-Test Wako) using from 10 to 15 μl of plasma. […]

Cc1[nH]c2ccc(C(=O)NS(=O)(=O)c3ccc(Cl)s3)cc2c1Cc1ccc2ccccc2c1Br [Compound (23), 3-((1-bromonaphthalen-2-yl)methyl)-5-((5-chloro-2-thiophenesulfonyl)carbamoyl)-2-methylindole]
TG concentration-decreasing activity (rate of decrease in plasma triglyceride): 9%
plasma glucose decreasing activity (rate of decrease in plasma glucose): 19%
